Measurements: PMC9266216, “Chemical Characterization, α-Glucosidase, α-Amylase and Lipase Inhibitory Properties of the Australian Honey Bee Propolis” (Foods, 2022)

What was measured:
[1] = molecular target: T1, human salivary α-amylase (Homo sapiens, UniProt P0DUB6); test: α-amylase inhibition assay (CNP-G3, absorbance 405 nm); type: biochemical; settings: for IC50: 120 min incubation, pH 6.0, 37 °C
T1 construct: purchased Sigma Aldrich
T1 sequence (P0DUB6 16-511): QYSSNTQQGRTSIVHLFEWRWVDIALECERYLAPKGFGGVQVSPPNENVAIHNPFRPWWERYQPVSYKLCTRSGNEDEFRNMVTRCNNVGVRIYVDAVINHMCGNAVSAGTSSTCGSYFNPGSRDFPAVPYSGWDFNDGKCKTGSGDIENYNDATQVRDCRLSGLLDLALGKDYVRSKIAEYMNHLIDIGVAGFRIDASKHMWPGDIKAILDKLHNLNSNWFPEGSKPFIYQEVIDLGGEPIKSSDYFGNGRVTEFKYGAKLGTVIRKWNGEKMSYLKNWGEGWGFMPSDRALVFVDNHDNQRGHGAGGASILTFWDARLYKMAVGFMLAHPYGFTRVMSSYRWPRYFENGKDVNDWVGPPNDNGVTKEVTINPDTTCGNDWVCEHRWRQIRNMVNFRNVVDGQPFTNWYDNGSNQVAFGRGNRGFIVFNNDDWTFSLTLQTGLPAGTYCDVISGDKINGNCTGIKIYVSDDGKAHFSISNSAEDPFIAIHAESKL
Procedure: The α-amylase inhibition assay was performed in 96-well microtiter plates. In each well was added 10 μL of propolis sample dissolved in DMSO, and 90 μL of 0.1 M phosphate buffer adjusted to pH 6.0 using 2.0 M H3PO4. To the solution, 80 μL of human salivary α-amylase solution (2.0 U/mL) was added and incubated for approximately 10 min at 37 °C. The enzyme reaction was initiated by adding 20 μL of the substrate solution CNP-G3 (10 mM in phosphate buffer). […] The percentage inhibition was calculated using the same formula as described for the α-glucosidase inhibition assay.

[2] = molecular target: T2, porcine pancreas lipase (Sus scrofa, UniProt P00591); test: lipase inhibition assay (p-NPB, absorbance 405 nm); type: biochemical; settings: for IC50: 60 min incubation, pH 7.4, 37 °C
T2 construct: purchased Sigma Aldrich
T2 sequence (P00591 1-450): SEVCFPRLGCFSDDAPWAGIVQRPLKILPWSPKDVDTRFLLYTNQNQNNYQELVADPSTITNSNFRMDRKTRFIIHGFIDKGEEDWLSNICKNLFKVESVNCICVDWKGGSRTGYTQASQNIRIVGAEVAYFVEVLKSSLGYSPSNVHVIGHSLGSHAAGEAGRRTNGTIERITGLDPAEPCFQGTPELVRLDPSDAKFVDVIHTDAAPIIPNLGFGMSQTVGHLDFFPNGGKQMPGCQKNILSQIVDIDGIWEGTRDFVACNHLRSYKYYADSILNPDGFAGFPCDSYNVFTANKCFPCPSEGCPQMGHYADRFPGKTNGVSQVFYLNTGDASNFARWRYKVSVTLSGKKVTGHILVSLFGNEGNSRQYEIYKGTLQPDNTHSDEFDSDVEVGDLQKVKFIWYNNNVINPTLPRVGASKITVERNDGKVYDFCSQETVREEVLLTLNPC
Procedure: The solvents used for extraction (ethanol—EtOH), HPLC (acetonitrile—MeCN), and LC–MS (MeCN and water—H2O) analyses were purchased from Merck. The ultra-pure water used for the HPLC analysis was from an in-house Milli-Q system.
The lipase inhibition assay was performed in 96-well microtiter plates. In each well was added 10 μL of propolis sample dissolved in DMSO and 155 μL of 0.1 M tris-HCl buffer adjusted to pH 7.4 using 1.0 M KOH. To the solution, 25 μL of lipase solution (2000 U/mL) was added and incubated for approximately 15 min at 37 °C. The enzyme reaction was initiated by adding 10 μL of the substrate solution p-NPB (100 mM in methanol). The colorimetric absorbance of the cleavage product after 60 min of incubation was measured at 405 nm, using the EnSpire microplate reader (Perkin Elmer). […] The percentage inhibition was calculated using the same formula as described for the α-glucosidase inhibition assay.

[3] = molecular target: α-glucosidase (Saccharomyces cerevisiae, UniProt P53341); test: biochemical; settings: read-out: α-Glucosidase inhibition
Procedure: The α-glucosidase inhibition assay was performed at room temperature in 96-well microtiter plates (Sigma Aldrich, Sydney, Australia). The assays were adapted from Zhao et al., with some modifications. Briefly, in each well was added 10 μL of propolis sample at 2 mg/mL in DMSO and 90 μL of 0.1 M phosphate buffer, adjusted to pH 7.5 using 0.6 M KOH. To the solution, 80 μL of α-glucosidase solution (2.0 U/mL) was added and incubated for 10 min at room temperature. The enzyme reaction was initiated by adding 20 μL of p-NPG solution (10 mM in phosphate buffer). The colorimetric absorbance of the cleavage product (the strongly chromogenic p-nitrophenolate ion) after 30 min of incubation was measured at 405 nm using the EnSpire microplate reader (Perkin Elmer, Boston, MA, USA). […] The results were analyzed and calculated in Microsoft Excel, and expressed using the mean for each of the triplicate sets. Inhibition of the enzyme was calculated as follows: Inhibition (%)=(1−Absorbance (sample)/Absorbance (blank) )×100%)

Chain of α-glucosidase (P53341 whole entry): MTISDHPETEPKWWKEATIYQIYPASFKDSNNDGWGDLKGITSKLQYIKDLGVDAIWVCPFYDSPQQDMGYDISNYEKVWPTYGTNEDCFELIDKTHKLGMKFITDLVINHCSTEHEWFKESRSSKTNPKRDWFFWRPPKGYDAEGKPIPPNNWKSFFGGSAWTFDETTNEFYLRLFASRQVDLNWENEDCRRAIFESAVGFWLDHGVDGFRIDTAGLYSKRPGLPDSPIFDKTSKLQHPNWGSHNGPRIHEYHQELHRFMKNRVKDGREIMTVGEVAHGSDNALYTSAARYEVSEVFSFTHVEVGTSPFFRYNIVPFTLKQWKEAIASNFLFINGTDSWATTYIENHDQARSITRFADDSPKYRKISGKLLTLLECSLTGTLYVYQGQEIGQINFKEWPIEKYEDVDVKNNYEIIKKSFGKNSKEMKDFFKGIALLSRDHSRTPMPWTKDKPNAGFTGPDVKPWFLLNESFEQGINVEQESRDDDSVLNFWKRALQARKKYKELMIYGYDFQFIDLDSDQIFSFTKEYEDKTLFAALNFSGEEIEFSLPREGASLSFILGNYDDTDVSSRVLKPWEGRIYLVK

CC(C)=CCC/C(C)=C/Cc1cc([C@@H]2CC(=O)c3c(O)cc(O)cc3O2)cc(O)c1O [Compound 2, propolin F (Isonymphaeol B)]
IC50 [1]: 135 µM
IC50 [2]: 53 µM

CC(C)=CCC/C(C)=C/Cc1c([C@@H]2CC(=O)c3c(cc(O)c(CC=C(C)C)c3O)O2)ccc(O)c1O [Compound 5, propolin G (Nymphaeol C)]
IC50 [1]: 246 µM
IC50 [2]: 43.4 µM

O=C1C[C@@H](c2ccc(O)c(O)c2)Oc2cc(O)cc(O)c21 [Compound 7, eriodictyol, reference compound]
inhibition at 250 µM [1]: 41%
inhibition at 83 µM [2]: 12%
inhibition at 250 µM [3]: 13%

CC(C)=CCC/C(C)=C/Cc1cc([C@@H]2CC(=O)c3c(O)cc(O)cc3O2)ccc1O [Compound 4, propolin H (3′-geranyl-naringenin)]
IC50 [1]: 52.5 µM
IC50 [2]: 33.1 µM

O=C1C[C@@H](c2ccc(O)cc2)Oc2cc(O)cc(O)c21 [Compound 8, naringenin, reference compound]
IC50 [1]: 121 µM
inhibition at 250 µM [1]: 73%
inhibition at 83 µM [2]: 24%
inhibition at 250 µM [3]: 40%

CC(C)=CCC/C(C)=C/Cc1c([C@@H]2CC(=O)c3c(O)cc(O)cc3O2)ccc(O)c1O [Compound 1, propolin D (Nymphaeol B)]
IC50 [1]: 205 µM
IC50 [2]: 51.8 µM

O=c1c(O)c(-c2ccc(O)c(O)c2)oc2cc(O)cc(O)c12 [Compound 9, quercetin, reference compound]
IC50 [1]: 17.4 µM
inhibition at 83 µM [2]: 37%

CC(C)=CCC/C(C)=C/Cc1c(-c2oc3cc(O)cc(O)c3c(=O)c2O)ccc(O)c1O [Compound 6, solophenol D]
IC50 [1]: 142 µM
IC50 [2]: 32.3 µM

CC(C)=CCC/C(C)=C/Cc1c(O)cc2c(c1O)C(=O)C[C@@H](c1ccc(O)c(O)c1)O2 [Compound 3, propolin C (Nymphaeol A)]
IC50 [1]: 204 µM
IC50 [2]: 30.3 µM
